Read-outs that look alike come from different tables or passages of the source. Starred links: 1 amine or outer side, 2 acyl side, 3 side chain; linkers in the order of their positions; H or OH if unused. Non-standard residues stand in square brackets, D forms with d. Residues, ends and D or L forms follow the SMILES beside them. Groups on a side chain read outwards from the residue. *: point of attachment. C20 diacid = O=C(O)CCCCCCCCCCCCCCCCCCC(=O)*; γGlu = O=C(O)[C@H](CCC(=O)[*:2])N[*:1]; NMeI = CC[C@H](C)[C@H](NC)C(=O)O; Nle = CCCC[C@H](N)C(=O)O; AEEA = NCCOCCOCC(=O)O; Aib = CC(C)(N)C(=O)O
Key:
[1] = Chemical stability of purified peptides (RP-UHPLC main peak purity loss); type: physicochemical
Method in brief: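 Purity loss is the drop in RP-UHPLC main-peak area fraction (215 nm detection, C8 column at 50 °C) from time zero to day 14 and/or day 28 at 40 °C. Samples held roughly 1.0 mg/ml peptide in 50 mM phosphate, pH 7.5, with other pH targets also tested.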

hCRHR1 = target: T1, hCRHR1 (Homo sapiens, UniProt P34998); assay: HTRF cAMP assay, determination of hCRHR1 potency (peptide libraries 5 conc., purified peptides 11 conc.); type: cell-based; conditions: read-out: hCRHR1 EC50
T1 sequence (P34998 24-415): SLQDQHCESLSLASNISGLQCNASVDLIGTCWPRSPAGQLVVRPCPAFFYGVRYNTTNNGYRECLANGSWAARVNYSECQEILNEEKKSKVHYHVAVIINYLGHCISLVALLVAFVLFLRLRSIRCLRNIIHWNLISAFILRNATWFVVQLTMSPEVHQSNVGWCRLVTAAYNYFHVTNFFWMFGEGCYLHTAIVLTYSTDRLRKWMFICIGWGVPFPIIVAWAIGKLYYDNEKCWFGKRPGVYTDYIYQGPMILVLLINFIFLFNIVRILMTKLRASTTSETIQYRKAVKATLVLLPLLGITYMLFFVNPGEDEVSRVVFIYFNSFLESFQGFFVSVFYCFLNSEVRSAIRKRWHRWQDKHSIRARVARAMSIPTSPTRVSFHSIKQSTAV
Method in brief: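 Cellular cAMP was read by time-resolved FRET between d2-labelled cAMP and cryptate anti-cAMP antibody. The cells were freshly thawed suspension CHO-K1 cells stably expressing human CRHR1.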

PK in mice = type: in vivo; parameters: T½ / MRT: unit: h; conditions: Mouse
Description: Lean male NMRI/RjHan mice were obtained from JanVier (JanVier Labs, France) at 6 weeks of age. The animals were single housed under a 12/12 h dark-light cycle, light off at 3 PM. Room temperature was controlled to 22°C ± 1°C, with 60 % ± 20% humidity. Animals had ad libitum access to regular rodent chow (Altromin 1324, Brogaarden, Denmark) and tap water.
After 2 weeks of acclimatization, the animals were randomized into treatment groups (n=9 per group) based on body weight. Animals were dosed IV with one peptide and SC with another peptide (15 or 50 nmol/kg) Plasma samples were collected for PK analysis at times 0.17, 1, 3, 6, 24, 30, 48, 72 and 96 hours post dosing in a sparse sampling design with 3 mice per group per timepoint. Plasma samples were analyzed using LC-MSMS and PK parameters were estimated by Non-Compartmental Analysis (NCA).

[2] = purified peptides, CHO-K1 cells stably expressing hCRHR1, cAMP HTRF
[3] = pH 7.5, 40°C, 14 days, first value of cell
[4] = pH 7.5, 40°C, 28 days, second value of cell

Compound | Chemical stability at pH 7.5 after 14 days at 40°C (% degradation) ([1]; pH 7.5, 14 days, 40°C) | Chemical stability at pH 7.5 after 28 days at 40°C (% degradation) ([1]; pH 7.5, 28 days, 40°C) | EC50 (hCRHR1; Table 5, purified peptides) | EC50 (hCRHR1; [2]) | MRT (PK in mice) | T½ (PK in mice) | Chemical stability at pH 7.5 after 14 days at 40°C (% degradation) [1, 3] | Chemical stability at pH 7.5 after 28 days at 40°C (% degradation) [1, 4]
CCCC[C@H](NC(=O)[C@@H](NC(=O)[C@H](CCC(=O)O)NC(=O)[C@H](C)NC(=O)[C@H](CC(N)=O)NC(=O)[C@H](CCC(=O)O)NC(=O)[C@H](CCCCNC(=O)COCCOCCNC(=O)COCCOCCNC(=O)CC[C@H](NC(=O)CC[C@H](NC(=O)CCCCCCCCCCCCCCCCCCC(=O)O)C(=O)O)C(=O)O)NC(=O)[C@H](C)NC(=O)[C@H](CCC(N)=O)NC(=O)[C@H](CCC(=O)O)NC(=O)[C@H](CCCNC(=N)N)NC(=O)[C@H](C)NC(=O)[C@H](C)NC(=O)[C@H](CCCNC(=N)N)NC(=O)[C@H](C)NC(=O)[C@H](CCCNC(=N)N)NC(=O)[C@H](C)NC(=O)[C@H](CCC(N)=O)NC(=O)[C@H](CO)NC(=O)[C@H](CC(C)C)NC(=O)[C@H](CC(C)C)NC(=O)[C@@H](NC(=O)[C@H](CCC(N)=O)NC(=O)[C@H](CC(C)C)NC(=O)[C@H](CC(C)C)NC(=O)CNC(=O)[C@@H](NC(=O)[C@@H]1CCCN1C(=O)[C@@H](NC(=O)[C@H](CC(=O)O)NC(=O)[C@H](CC(C)C)NC(=O)[C@H](CO)NC(=O)[C@H](CC(C)C)NC(=O)[C@@H](NC(=O)[C@@H](NC)[C@@H](C)CC)C(C)C)C(C)C)[C@@H](C)CC)[C@@H](C)CC)[C@@H](C)CC)C(=O)N[C@@H](C)C(=O)N[C@@H](CCC(=O)O)C(=O)N[C@H](C(N)=O)C(C)C [compound 101] (H-[NMeI]VLSLDVPIGLLQILLSQARARAAREQAK([AEEA-AEEA-γGlu-γGlu-C20 diacid])ENAEI[Nle]AEV-NH2) | -2.2% | -4.3% | > 5 µM | – | – | – | – | –
CC[C@H](C)[C@H](NC)C(=O)N[C@H](C(=O)N[C@@H](CC(C)C)C(=O)N[C@@H](CO)C(=O)N[C@@H](CC(C)C)C(=O)N[C@@H](CC(=O)O)C(=O)N[C@H](C(=O)N1CCC[C@H]1C(=O)N[C@H](C(=O)NCC(=O)N[C@@H](CC(C)C)C(=O)N[C@@H](CC(C)C)C(=O)N[C@@H](CCC(N)=O)C(=O)N[C@H](C(=O)N[C@@H](CC(C)C)C(=O)N[C@@H](CC(C)C)C(=O)N[C@@H](CCC(=O)O)C(=O)N[C@@H](CCC(N)=O)C(=O)N[C@@H](C)C(=O)N[C@@H](CCCNC(=N)N)C(=O)N[C@@H](C)C(=O)N[C@@H](CCCNC(=N)N)C(=O)N[C@@H](C)C(=O)N[C@@H](C)C(=O)N[C@@H](CCCNC(=N)N)C(=O)N[C@@H](CCC(=O)O)C(=O)N[C@@H](CCC(N)=O)C(=O)N[C@@H](C)C(=O)N[C@@H](CCCCNC(=O)COCCOCCNC(=O)COCCOCCNC(=O)CC[C@H](NC(=O)CC[C@H](NC(=O)CCCCCCCCCCCCCCCCCCC(=O)O)C(=O)O)C(=O)O)C(=O)N[C@H](C(=O)N[C@@H](CC(N)=O)C(=O)N[C@@H](C)C(=O)N[C@@H](CCC(=O)O)C(=O)N[C@H](C(=O)N[C@@H](CC(C)C)C(=O)N[C@@H](C)C(=O)N[C@@H](CCC(=O)O)C(=O)N[C@H](C(N)=O)C(C)C)[C@@H](C)CC)[C@@H](C)O)[C@@H](C)CC)[C@@H](C)CC)C(C)C)C(C)C [SEQ ID NO: 5] (H-[NMeI]VLSLDVPIGLLQILLEQARARAAREQAK([AEEA-AEEA-γGlu-γGlu-C20 diacid])TNAEILAEV-NH2) | – | – | – | > 5 µM | 21 | 14.3 | – | –
CC[C@H](C)[C@H](N)C(=O)N[C@H](C(=O)N[C@@H](CC(C)C)C(=O)N[C@@H](CO)C(=O)N[C@@H](CC(C)C)C(=O)N[C@@H](CC(=O)O)C(=O)N[C@H](C(=O)N1CCC[C@H]1C(=O)N[C@H](C(=O)NCC(=O)N[C@@H](CC(C)C)C(=O)N[C@@H](CC(C)C)C(=O)N[C@@H](CCC(N)=O)C(=O)N[C@H](C(=O)N[C@@H](CC(C)C)C(=O)N[C@@H](CC(C)C)C(=O)N[C@@H](CCC(=O)O)C(=O)N[C@@H](CCC(N)=O)C(=O)N[C@@H](C)C(=O)N[C@@H](CCCNC(=N)N)C(=O)N[C@@H](C)C(=O)N[C@@H](CCCNC(=N)N)C(=O)N[C@@H](C)C(=O)N[C@@H](C)C(=O)N[C@@H](CCCNC(=N)N)C(=O)N[C@@H](CCC(=O)O)C(=O)N[C@@H](CCC(N)=O)C(=O)N[C@@H](C)C(=O)N[C@@H](CCCCNC(=O)COCCOCCNC(=O)COCCOCCNC(=O)CC[C@H](NC(=O)CC[C@H](NC(=O)CCCCCCCCCCCCCCCCCCC(=O)O)C(=O)O)C(=O)O)C(=O)N[C@@H](CCC(=O)O)C(=O)N[C@@H](CC(N)=O)C(=O)N[C@@H](C)C(=O)N[C@@H](CCC(=O)O)C(=O)N[C@H](C(=O)N[C@@H](CC(C)C)C(=O)N[C@@H](C)C(=O)N[C@@H](CCC(=O)O)C(=O)N[C@H](C(N)=O)C(C)C)[C@@H](C)CC)[C@@H](C)CC)[C@@H](C)CC)C(C)C)C(C)C [SEQ ID NO: 17] (H-IVLSLDVPIGLLQILLEQARARAAREQAK([AEEA-AEEA-γGlu-γGlu-C20 diacid])ENAEILAEV-NH2) | – | – | – | > 5 µM | – | – | -1.6% | -2.6%
CCCC[C@H](NC(=O)[C@@H](NC(=O)[C@H](CCC(=O)O)NC(=O)[C@H](C)NC(=O)[C@H](CC(N)=O)NC(=O)C(C)(C)NC(=O)[C@H](CCCCNC(=O)COCCOCCNC(=O)COCCOCCNC(=O)CC[C@H](NC(=O)CC[C@H](NC(=O)CCCCCCCCCCCCCCCCCCC(=O)O)C(=O)O)C(=O)O)NC(=O)[C@H](C)NC(=O)[C@H](CCC(N)=O)NC(=O)[C@H](CCC(=O)O)NC(=O)[C@H](CCCNC(=N)N)NC(=O)[C@H](C)NC(=O)[C@H](C)NC(=O)[C@H](CCCNC(=N)N)NC(=O)[C@H](C)NC(=O)[C@H](CCCNC(=N)N)NC(=O)[C@H](C)NC(=O)[C@H](CCC(N)=O)NC(=O)[C@H](CO)NC(=O)[C@H](CC(C)C)NC(=O)[C@H](CC(C)C)NC(=O)[C@@H](NC(=O)[C@H](CCC(N)=O)NC(=O)[C@H](CC(C)C)NC(=O)[C@H](CC(C)C)NC(=O)CNC(=O)[C@@H](NC(=O)[C@@H]1CCCN1C(=O)[C@@H](NC(=O)[C@H](CC(=O)O)NC(=O)[C@H](CC(C)C)NC(=O)[C@H](CO)NC(=O)[C@H](CC(C)C)NC(=O)[C@@H](NC(=O)[C@@H](N)[C@@H](C)CC)C(C)C)C(C)C)[C@@H](C)CC)[C@@H](C)CC)[C@@H](C)CC)C(=O)N[C@@H](C)C(=O)N[C@@H](CCC(=O)O)C(=O)N[C@H](C(N)=O)C(C)C [compound 237] (H-IVLSLDVPIGLLQILLSQARARAAREQAK([AEEA-AEEA-γGlu-γGlu-C20 diacid])[Aib]NAEI[Nle]AEV-NH2) | -1.1% | -2.8% | > 5 µM | – | – | – | – | –
CC[C@H](C)[C@H](N)C(=O)N[C@H](C(=O)N[C@@H](CC(C)C)C(=O)N[C@@H](CO)C(=O)N[C@@H](CC(C)C)C(=O)N[C@@H](CC(=O)O)C(=O)N[C@H](C(=O)N1CCC[C@H]1C(=O)N[C@H](C(=O)NCC(=O)N[C@@H](CC(C)C)C(=O)N[C@@H](CC(C)C)C(=O)N[C@@H](CCC(N)=O)C(=O)N[C@H](C(=O)N[C@@H](CC(C)C)C(=O)N[C@@H](CC(C)C)C(=O)N[C@@H](CCC(=O)O)C(=O)N[C@@H](CCC(N)=O)C(=O)N[C@@H](C)C(=O)N[C@@H](CCCNC(=N)N)C(=O)N[C@@H](C)C(=O)N[C@@H](CCCNC(=N)N)C(=O)N[C@@H](C)C(=O)N[C@@H](C)C(=O)N[C@@H](CCCNC(=N)N)C(=O)N[C@@H](CCC(=O)O)C(=O)N[C@@H](CCC(N)=O)C(=O)N[C@@H](C)C(=O)N[C@@H](CCCCNC(=O)COCCOCCNC(=O)COCCOCCNC(=O)CC[C@H](NC(=O)CC[C@H](NC(=O)CCCCCCCCCCCCCCCCCCC(=O)O)C(=O)O)C(=O)O)C(=O)NC(C)(C)C(=O)N[C@@H](CC(N)=O)C(=O)N[C@@H](C)C(=O)N[C@@H](CCC(=O)O)C(=O)N[C@H](C(=O)N[C@@H](CC(C)C)C(=O)N[C@@H](C)C(=O)N[C@@H](CCC(=O)O)C(=O)N[C@H](C(N)=O)C(C)C)[C@@H](C)CC)[C@@H](C)CC)[C@@H](C)CC)C(C)C)C(C)C [SEQ ID NO: 19] (H-IVLSLDVPIGLLQILLEQARARAAREQAK([AEEA-AEEA-γGlu-γGlu-C20 diacid])[Aib]NAEILAEV-NH2) | – | – | – | > 5 µM | – | – | -1.5% | -2.6%

Reference: patent publication EP4810052A2, “HCRHR2 SELECTIVE POLYPEPTIDES” (Gubra A/S, priority 2023, dated 2026)
